Where a SMILES comes first, the peptide text is derived from it. Bridges are numbered along the chain shown (N, C = ends). Roman numbers before positions name the chains, in order. [ ]: non-standard residue; d: D form. NMeDab = CN[C@@H](CCN)C(=O)O; Tle = CC(C)(C)[C@H](N)C(=O)O; dDab = NCC[C@@H](N)C(=O)O; Nle = CCCC[C@H](N)C(=O)O; Orn = NCCC[C@H](N)C(=O)O; Dab = NCC[C@H](N)C(=O)O; Sar = CNCC(=O)O
Assays:
Assay type in all cases: cell-based
[1] = test system: Acinetobacter baumannii 872842; conditions: 872842
[2] = test system: Acinetobacter baumannii DSM 30008; conditions: DSM 30008
Procedure, shortened: (§1)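 Peptide MICs were determined by CLSI broth microdilution in cation-adjusted Mueller-Hinton II broth with 0.002% polysorbate 80, inoculum approx. 10^6 CFU/mL. Two-fold serial dilutions of peptide were tested. MIC was the lowest concentration (μg/mL) with no visible growth after 18-20 hours at 35° C.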

Escherichia coli 926415 = conditions: 926415
[3] = test system: Escherichia coli ATCC 25922; conditions: ATCC 25922
Procedure, shortened: as §1

[4] = test system: Klebsiella pneumoniae 968733; conditions: 968733
[5] = test system: Klebsiella pneumoniae SSI #3010; conditions: SSI #3010
Procedure, shortened: as §1

[6] = test system: Pseudomonas aeruginosa ATCC 27853; conditions: ATCC 27853
Procedure, shortened: as §1

[7] = test system: human red blood cells (hRBC); assay: Hemolysis of human red blood cells; conditions: red cells of human, 1 h
Procedure, shortened: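 Percent lysis of washed human erythrocytes after 1 h at 37° C. with 100 μg/mL peptide, calculated from OD540 of 8-fold diluted supernatant as a fraction of the 2.5% Triton X-100 value.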

SMILES	Acinetobacter baumannii 872842 MIC [1]	Acinetobacter baumannii DSM 30008 MIC [2]	Escherichia coli 926415 MIC (Escherichia coli 926415)	Escherichia coli ATCC 25922 MIC [3]	Klebsiella pneumoniae 968733 MIC [4]	Klebsiella pneumoniae SSI #3010 MIC [5]	Pseudomonas aeruginosa ATCC 27853 MIC [6]	Hemolysis at 100 μg/mL [7]; 100	Hemolysis at 100 μg/mL ([7]; 100 μg/mL)
CCCC[C@@H]1NC(=O)[C@@H]2CCCN2C(=O)[C@H]2CCCN2C(=O)[C@H](CO)NC(=O)[C@H](C)NC(=O)[C@H](C(C)(C)C)NC(=O)[C@H](CCN)NC(=O)[C@H](Cc2c[nH]c3ccccc23)NC(=O)[C@H](CCN)NC(=O)[C@@H](CCN)NC(=O)[C@H](CC(=O)N(C)[C@@H](CCN)C(=O)N[C@H]2CCNC(=O)[C@H]([C@@H](C)O)NC(=O)[C@H](CCN)NC(=O)[C@H](CCN)NC(=O)[C@H](CC(C)C)NC(=O)[C@@H](CC(C)C)NC(=O)[C@H](CCN)NC2=O)NC(=O)[C@H](CCN)NC(=O)[C@H](Cc2ccc(O)cc2)NC(=O)[C@H](CO)NC1=O [Ex. 73] (I: cyclo(W[Dab][Tle]AS[dP]P[Nle]SY[Dab]D[dDab][Dab]) / II: [NMeDab][Dab][Dab][dL]L[Dab][Dab]T; amide I:12-II:N; lactam II:2-II:C)	0.5 µg/mL	0.25 µg/mL	0.5 µg/mL	0.25 µg/mL	0.5 µg/mL	0.5 µg/mL	0.25 µg/mL	1%	
CCCC[C@@H]1NC(=O)[C@@H]2CCCN2C(=O)[C@H]2CCCN2C(=O)[C@H](CO)NC(=O)[C@H](C)NC(=O)[C@H](C(C)(C)C)NC(=O)[C@H](CCN)NC(=O)[C@H](Cc2c[nH]c3ccccc23)NC(=O)[C@H](CCN)NC(=O)[C@H](CCC(=O)N[C@@H](CCN)C(=O)N[C@H](CCN)C(=O)N[C@H]2CCNC(=O)[C@H]([C@@H](C)O)NC(=O)[C@H](CCN)NC(=O)[C@H](CCN)NC(=O)[C@H](CC(C)C)NC(=O)[C@@H](Cc3ccccc3)NC(=O)[C@H](CCN)NC2=O)NC(=O)[C@H](CCCN)NC(=O)[C@H](CCN)NC(=O)[C@H](Cc2ccc(O)cc2)NC(=O)[C@H](CO)NC1=O [Ex. 74] (I: cyclo([Nle]SY[Dab][Orn]E[Dab]W[Dab][Tle]AS[dP]P) / II: [Dab][dDab][Dab][Dab][dF]L[Dab][Dab]T; amide I:6-II:N; lactam II:3-II:C)	4 µg/mL	1 µg/mL	1 µg/mL	2 µg/mL	2 µg/mL	1 µg/mL	1 µg/mL	2%	
CCCC[C@@H]1NC(=O)[C@@H]2CCCN2C(=O)[C@H]2CCCN2C(=O)[C@H](CO)NC(=O)[C@H](C)NC(=O)[C@H](C(C)(C)C)NC(=O)[C@H](CCN)NC(=O)[C@H](Cc2c[nH]c3ccccc23)NC(=O)[C@H](CCC(=O)N[C@H](C(=O)N[C@@H](CCN)C(=O)N[C@H]2CCNC(=O)[C@H]([C@@H](C)O)NC(=O)[C@H](CCN)NC(=O)[C@H](CCN)NC(=O)[C@H](CC(C)C)NC(=O)[C@@H](Cc3ccccc3)NC(=O)[C@H](CCN)NC2=O)[C@@H](C)O)NC(=O)[C@@H](CCN)NC(=O)[C@H](CCCN)NC(=O)[C@H](CCN)NC(=O)[C@H](Cc2ccc(O)cc2)NC(=O)[C@H](CO)NC1=O [Ex. 75] (I: cyclo([Nle]SY[Dab][Orn][dDab]EW[Dab][Tle]AS[dP]P) / II: T[Dab][Dab][Dab][dF]L[Dab][Dab]T; amide I:7-II:N; lactam II:3-II:C)	2 µg/mL	0.5 µg/mL	1 µg/mL	0.5 µg/mL	4 µg/mL	0.5 µg/mL	0.25 µg/mL	<1%	
CC(C)C[C@@H]1NC(=O)[C@@H](CC(C)C)NC(=O)[C@H](CCN)NC(=O)[C@@H](NC(=O)[C@H](CCN)NC(=O)CN(C)C(=O)C[C@@H]2NC(=O)[C@H](CCN)NC(=O)[C@H](Cc3ccc(O)cc3)NC(=O)[C@H](CO)NC(=O)[C@H](CC(C)C)NC(=O)[C@@H]3CCCN3C(=O)[C@H]3CCCN3C(=O)[C@H](CO)NC(=O)[C@H](C)NC(=O)[C@H](C(C)C)NC(=O)[C@H](CCN)NC(=O)[C@H](Cc3c[nH]c4ccccc34)NC(=O)[C@H](CCN)NC(=O)[C@@H](CCN)NC2=O)CCNC(=O)[C@H]([C@@H](C)O)NC(=O)[C@H](CCN)NC(=O)[C@H](CCN)NC1=O [Ex. 76] (I: cyclo(W[Dab]VAS[dP]PLSY[Dab]D[dDab][Dab]) / II: [Sar][Dab][Dab][Dab][dL]L[Dab][Dab]T; amide I:12-II:N; lactam II:3-II:C)	0.5 µg/mL	1 µg/mL	0.5 µg/mL	2 µg/mL	2 µg/mL	2 µg/mL	0.5 µg/mL	1%	
CC(C)C[C@@H]1NC(=O)[C@@H](CC(C)C)NC(=O)[C@H](CCN)NC(=O)[C@@H](NC(=O)[C@H](CCN)NC(=O)CN(C)C(=O)C[C@@H]2NC(=O)[C@H](CCCN)NC(=O)[C@H](CCN)NC(=O)[C@H](Cc3ccc(O)cc3)NC(=O)[C@H](CO)NC(=O)[C@H](CC(C)C)NC(=O)[C@@H]3CCCN3C(=O)[C@H]3CCCN3C(=O)[C@H](Cc3ccc(O)cc3)NC(=O)[C@H](C)NC(=O)[C@H](C(C)(C)C)NC(=O)[C@H](CCN)NC(=O)[C@H](Cc3c[nH]c4ccccc34)NC(=O)[C@H](CCN)NC2=O)CCNC(=O)[C@H]([C@@H](C)O)NC(=O)[C@H](CCN)NC(=O)[C@H](CCN)NC1=O [Ex. 77] (I: cyclo(LSY[Dab][Orn]D[Dab]W[Dab][Tle]AY[dP]P) / II: [Sar][Dab][Dab][Dab][dL]L[Dab][Dab]T; amide I:6-II:N; lactam II:3-II:C)	2 µg/mL	1 µg/mL	0.5 µg/mL	1 µg/mL	2 µg/mL	1 µg/mL	1 µg/mL	<1%	
CCCC[C@@H]1NC(=O)[C@@H]2CCCN2C(=O)[C@H]2CCCN2C(=O)[C@H](CO)NC(=O)[C@H](C)NC(=O)[C@H](C(C)(C)C)NC(=O)[C@H](CCN)NC(=O)[C@H](Cc2c[nH]c3ccccc23)NC(=O)[C@H](CCN)NC(=O)[C@H](CCC(=O)N[C@@H](CCN)C(=O)N[C@H](CCN)C(=O)N[C@H]2CCNC(=O)[C@H]([C@@H](C)O)NC(=O)[C@H](CCN)NC(=O)[C@H](CCN)NC(=O)[C@H](CC(C)C)NC(=O)[C@@H](CC(C)C)NC(=O)[C@H](CCN)NC2=O)NC(=O)[C@H](CCCN)NC(=O)[C@H](CCN)NC(=O)[C@H](Cc2ccc(O)cc2)NC(=O)[C@H](CO)NC1=O [Ex. 78] (I: cyclo([Nle]SY[Dab][Orn]E[Dab]W[Dab][Tle]AS[dP]P) / II: [Dab][dDab][Dab][Dab][dL]L[Dab][Dab]T; amide I:6-II:N; lactam II:3-II:C)	1 µg/mL	0.5 µg/mL	0.5 µg/mL	0.5 µg/mL	0.5 µg/mL	0.5 µg/mL	0.25 µg/mL	1%	
CC(C)C[C@@H]1NC(=O)[C@@H](CC(C)C)NC(=O)[C@H](CCN)NC(=O)[C@@H](NC(=O)[C@H](CCN)NC(=O)[C@H](CCN)NC(=O)[C@@H]2CCC(=O)N[C@@H](CCN)C(=O)N[C@@H](Cc3c[nH]c4ccccc34)C(=O)N[C@H]3CSSC[C@H](NC(=O)[C@H](Cc4ccc(O)cc4)NC(=O)[C@H](CO)NC(=O)[C@H](CC(C)C)NC(=O)[C@@H]4CCCN4C(=O)[C@H]4CCCN4C(=O)[C@H](CO)NC(=O)[C@H](C)NC(=O)[C@H](C(C)C)NC3=O)C(=O)NCC(=O)N2)CCNC(=O)[C@H]([C@@H](C)O)NC(=O)[C@H](CCN)NC(=O)[C@H](CCN)NC1=O [Ex. 79] ([Dab]WCVAS[dP]PLSYCGE[Dab][Dab][Dab][Dab][dL]L[Dab][Dab]T; disulfide 3-12; lactam 17-C, N-14)	2 µg/mL	0.5 µg/mL	2 µg/mL	0.5 µg/mL	8 µg/mL	1 µg/mL	0.5 µg/mL		<1%

From patent US10829520B2, “Beta-hairpin peptidomimetics” (POLYPHOR AG, priority 2015, dated 2020)
